According to ChEMBL document CHEMBL4049405, “Investigation on cellular uptake and pharmacodynamics of DOCK2-inhibitory peptides conjugated with cell-penetrating peptides” (Bioorg Med Chem, 2017):
Positions of bridges follow the written chain, without caps; N, C: chain ends. Non-standard residues stand in square brackets, D forms with d. Residues, ends and D or L forms follow the SMILES beside them. *: point of attachment. X1 = O=C(OCCCS*)Oc1ccc2nc(C3=N[C@@H](C(=O)O)CS3)sc2c1; X2 = CC(=O)[C@H]1CSC(c2nc3ccc(OC(=O)OCCCS*)cc3s2)=N1; Mpa = O=C(O)CCS

Experiments:
[1] = Drug uptake in HEK293T cells expressing luciferase reporter gene at 50 uM measured every 3 mins for 60 mins by luminescence assay relative to 50 uM luciferin; type: ADME, cell-based; settings: human, hek-293t, 1 h
[2] = Cytotoxicity against HEK293T cells assessed as cell viability at 50 uM by CellTiter-Glo assay relative to control; settings: human
in vitro [3] = settings: human, HEK293T cells
Description: Cytotoxicity against HEK293T cells assessed as cell viability at 1.9 uM by CellTiter-Glo assay relative to control

in vitro [4] = settings: human, HEK293T cells; remark: listed apart in the source
Description: Cytotoxicity against HEK293T cells assessed as cell viability at 5.6 uM by CellTiter-Glo assay relative to control

in vitro [5] = settings: human, HEK293T cells; remark: listed apart in the source
Description: Cytotoxicity against HEK293T cells assessed as cell viability at 16.7 uM by CellTiter-Glo assay relative to control

in vitro [6] = settings: human, HEK293T cells; remark: listed apart in the source
Description: Cytotoxicity against HEK293T cells assessed as cell viability at 6.3 uM by CellTiter-Glo assay relative to control

in vitro [7] = settings: human, HEK293T cells; remark: listed apart in the source
Description: Cytotoxicity against HEK293T cells assessed as cell viability at 12.5 uM by CellTiter-Glo assay relative to control

in vitro [8] = settings: human, HEK293T cells; remark: listed apart in the source
Description: Cytotoxicity against HEK293T cells assessed as cell viability at 25 uM by CellTiter-Glo assay relative to control

| SMILES | fold change (FC) [1] | viability at 50 µM [2] [%] | viability at 1.9 µM (in vitro [3]) [%] | viability at 5.6 µM (in vitro [4]) [%] | viability at 16.7 µM (in vitro [5]) [%] | viability at 6.3 µM (in vitro [6]) [%] | viability at 12.5 µM (in vitro [7]) [%] | viability at 25 µM (in vitro [8]) [%] |
| --- | --- | --- | --- | --- | --- | --- | --- | --- |
| CC(C)C[C@H](NC(=O)CCSSCCCOC(=O)Oc1ccc2nc(C3=N[C@@H](C(=O)O)CS3)sc2c1)C(=O)N[C@@H](CCCCN)C(=O)N[C@H](C(=O)N[C@@H](CCCNC(=N)N)C(=O)N[C@H](C(=O)N[C@@H](CC(C)C)C(=O)N[C@@H](CCCCN)C(=O)N[C@@H](CCCNC(=N)N)C(=O)N[C@@H](Cc1c[nH]c2ccccc12)C(=O)N[C@@H](CCCCN)C(N)=O)C(C)C)[C@@H](C)O ([Mpa](X1)LKTRVLKRWK-NH2) | 30.1 | 87.8 | 88.5 | 80 | 79.1 | – | – | – |
| CC(C)C[C@H](NC(=O)CCSSCCCOC(=O)Oc1ccc2nc(C3=N[C@@H](C(=O)O)CS3)sc2c1)C(=O)N[C@@H](CCCCN)C(=O)N[C@@H](CCCNC(=N)N)C(=O)N[C@@H](Cc1c[nH]c2ccccc12)C(=O)N[C@@H](CCCCN)C(=O)N[C@@H](CC(C)C)C(=O)N[C@@H](Cc1ccccc1)C(=O)N[C@@H](CC(N)=O)C(=O)N[C@@H](CCCCN)C(=O)N[C@@H](CCC(N)=O)C(N)=O ([Mpa](X1)LKRWKLFNKQ-NH2) | 34.5 | 94 | 94.2 | 93.7 | 88.1 | – | – | – |
| CC(C)C[C@H](NC(=O)[C@H](CCCCN)NC(=O)[C@H](Cc1c[nH]c2ccccc12)NC(=O)[C@H](CCCNC(=N)N)NC(=O)CCSSCCCOC(=O)Oc1ccc2nc(C3=N[C@@H](C(=O)O)CS3)sc2c1)C(=O)N[C@@H](Cc1ccccc1)C(=O)N[C@@H](CC(N)=O)C(=O)N[C@@H](CCCCN)C(=O)N[C@@H](CCC(N)=O)C(=O)N[C@@H](CCC(=O)O)C(=O)N[C@@H](Cc1c[nH]c2ccccc12)C(N)=O ([Mpa](X1)RWKLFNKQEW-NH2) | 18.2 | 102 | 92.3 | 93.6 | 92.8 | – | – | – |
| CC(=O)N[C@@H](CSSCCCOC(=O)Oc1ccc2nc(C3=N[C@@H](C(=O)O)CS3)sc2c1)C(=O)N[C@H]1CSSC[C@@H](C(=O)N[C@@H](CCCNC(=N)N)C(=O)N[C@@H](CCCNC(=N)N)C(=O)N[C@@H](CCCNC(=N)N)C(=O)N[C@@H](CCCNC(=N)N)C(=O)N[C@@H](CCCNC(=N)N)C(=O)N[C@@H](CCCNC(=N)N)C(=O)N[C@@H](CCCNC(=N)N)C(=O)N[C@@H](CCCNC(=N)N)C(N)=O)NC(=O)[C@H](Cc2c[nH]c3ccccc23)NC(=O)[C@@H]2CCCN2C(=O)[C@H](Cc2ccc(O)cc2)NC(=O)CNC(=O)[C@H](Cc2cnc[nH]2)NC(=O)[C@H](Cc2ccc(O)cc2)NC(=O)[C@H](CCCCN)NC(=O)[C@H](C)NC(=O)[C@H](C(C)C)NC1=O (Ac-C(X1)CVAKYHGYPWCRRRRRRRR-NH2; disulfide 2-12) | 61 | 71.7 | – | – | – | 108 | 104 | 99.7 |
| CC(C)C[C@H](NC(=O)[C@H](CCCCN)NC(=O)[C@H](Cc1c[nH]c2ccccc12)NC(=O)[C@H](CCCNC(=N)N)NC(=O)[C@H](CCCCN)NC(=O)[C@H](CC(C)C)NC(=O)[C@@H](NC(=O)CCSSCCCOC(=O)Oc1ccc2nc(C3=N[C@@H](C(=O)O)CS3)sc2c1)C(C)C)C(=O)N[C@@H](Cc1ccccc1)C(=O)N[C@@H](CC(N)=O)C(=O)N[C@@H](CCCCN)C(N)=O ([Mpa](X1)VLKRWKLFNK-NH2) | 30.3 | 95.9 | 88.6 | 98.5 | 99.6 | – | – | – |
| CC(C)C[C@H](NC(=O)[C@H](CCCCN)NC(=O)[C@H](Cc1c[nH]c2ccccc12)NC(=O)[C@H](CCCNC(=N)N)NC(=O)[C@H](CCCCN)NC(=O)CCSSCCCOC(=O)Oc1ccc2nc(C3=N[C@@H](C(=O)O)CS3)sc2c1)C(=O)N[C@@H](Cc1ccccc1)C(=O)N[C@@H](CC(N)=O)C(=O)N[C@@H](CCCCN)C(=O)N[C@@H](CCC(N)=O)C(=O)N[C@@H](CCC(=O)O)C(N)=O ([Mpa](X1)KRWKLFNKQE-NH2) | 13.6 | 93.8 | 95.8 | 106 | 93.7 | – | – | – |
| CC(C)C[C@H](NC(=O)[C@H](CO)NC(=O)CCSSCCCOC(=O)Oc1ccc2nc(C3=N[C@@H](C(=O)O)CS3)sc2c1)C(=O)N[C@@H](CCCCN)C(=O)N[C@H](C(=O)N[C@@H](CCCNC(=N)N)C(=O)N[C@H](C(=O)N[C@@H](CC(C)C)C(=O)N[C@@H](CCCCN)C(=O)N[C@@H](CCCNC(=N)N)C(=O)N[C@@H](Cc1c[nH]c2ccccc12)C(N)=O)C(C)C)[C@@H](C)O ([Mpa](X1)SLKTRVLKRW-NH2) | 16.7 | 83.8 | 84 | 89.6 | 84.3 | – | – | – |
| CC(C)C[C@H](NC(=O)[C@H](CCCCN)NC(=O)[C@H](Cc1c[nH]c2ccccc12)NC(=O)[C@H](CCCNC(=N)N)NC(=O)[C@H](CCCCN)NC(=O)[C@H](CC(C)C)NC(=O)[C@@H](NC(=O)[C@H](CCCNC(=N)N)NC(=O)CCSSCCCOC(=O)Oc1ccc2nc(C3=N[C@@H](C(=O)O)CS3)sc2c1)C(C)C)C(=O)N[C@@H](Cc1ccccc1)C(=O)N[C@@H](CC(N)=O)C(N)=O ([Mpa](X1)RVLKRWKLFN-NH2) | 198.2 | 86 | 93.5 | 94.4 | 92.5 | – | – | – |
| CC(=O)N[C@@H](CSSCCCOC(=O)Oc1ccc2nc(C3=N[C@@H](C(C)=O)CS3)sc2c1)C(=O)N[C@H]1CSSC[C@@H](C(=O)N[C@@H](CCCNC(=N)N)C(=O)N[C@@H](CCCNC(=N)N)C(=O)N[C@@H](CCCNC(=N)N)C(=O)N[C@H](C(=O)N[C@@H](CCCNC(=N)N)C(=O)N[C@H](C(=O)N[C@@H](CC(C)C)C(=O)N[C@@H](CCCCN)C(=O)N[C@@H](CCCNC(=N)N)C(=O)N[C@@H](Cc2c[nH]c3ccccc23)C(=O)N[C@@H](CCCCN)C(=O)N[C@@H](CC(C)C)C(=O)N[C@@H](Cc2ccccc2)C(N)=O)C(C)C)[C@@H](C)O)NC(=O)[C@H](Cc2c[nH]c3ccccc23)NC(=O)[C@@H]2CCCN2C(=O)[C@H](Cc2ccc(O)cc2)NC(=O)CNC(=O)[C@H](Cc2cnc[nH]2)NC(=O)[C@H](Cc2ccc(O)cc2)NC(=O)[C@H](CCCCN)NC(=O)[C@H](C)NC(=O)[C@H](C(C)C)NC1=O (Ac-C(X2)CVAKYHGYPWCRRRTRVLKRWKLF-NH2; disulfide 2-12) | 66.8 | 85.9 | – | – | – | 99.1 | 108 | 97.1 |
| CC(C)C[C@H](NC(=O)[C@H](CCCCN)NC(=O)[C@H](Cc1c[nH]c2ccccc12)NC(=O)[C@H](CCCNC(=N)N)NC(=O)[C@H](CCCCN)NC(=O)[C@H](CC(C)C)NC(=O)[C@@H](NC(=O)[C@H](CCCNC(=N)N)NC(=O)[C@@H](NC(=O)[C@H](CCCCN)NC(=O)CCSSCCCOC(=O)Oc1ccc2nc(C3=N[C@@H](C(=O)O)CS3)sc2c1)[C@@H](C)O)C(C)C)C(N)=O ([Mpa](X1)KTRVLKRWKL-NH2) | 30.7 | 80.1 | 77.7 | 85.3 | 80.5 | – | – | – |
| CC(C)C[C@H](NC(=O)[C@H](CO)NC(=O)CNC(=O)CCSSCCCOC(=O)Oc1ccc2nc(C3=N[C@@H](C(=O)O)CS3)sc2c1)C(=O)N[C@@H](CCCCN)C(=O)N[C@H](C(=O)N[C@@H](CCCNC(=N)N)C(=O)N[C@H](C(=O)N[C@@H](CC(C)C)C(=O)N[C@@H](CCCCN)C(=O)N[C@@H](CCCNC(=N)N)C(N)=O)C(C)C)[C@@H](C)O ([Mpa](X1)GSLKTRVLKR-NH2) | 11.2 | 87 | 101 | 100 | 93.1 | – | – | – |
| CC(C)C[C@H](NC(=O)[C@H](CCCCN)NC(=O)[C@H](Cc1c[nH]c2ccccc12)NC(=O)CCSSCCCOC(=O)Oc1ccc2nc(C3=N[C@@H](C(=O)O)CS3)sc2c1)C(=O)N[C@@H](Cc1ccccc1)C(=O)N[C@@H](CC(N)=O)C(=O)N[C@@H](CCCCN)C(=O)N[C@@H](CCC(N)=O)C(=O)N[C@@H](CCC(=O)O)C(=O)N[C@@H](Cc1c[nH]c2ccccc12)C(=O)N[C@H](C(N)=O)[C@@H](C)O ([Mpa](X1)WKLFNKQEWT-NH2) | 14.7 | 102 | 100 | 99.6 | 104 | – | – | – |
| CC(C)C[C@H](NC(=O)[C@H](CCCCN)NC(=O)[C@H](Cc1c[nH]c2ccccc12)NC(=O)[C@H](CCCNC(=N)N)NC(=O)[C@H](CCCCN)NC(=O)[C@H](CC(C)C)NC(=O)[C@@H](NC(=O)[C@H](CCCNC(=N)N)NC(=O)[C@@H](NC(=O)CCSSCCCOC(=O)Oc1ccc2nc(C3=N[C@@H](C(=O)O)CS3)sc2c1)[C@@H](C)O)C(C)C)C(=O)N[C@@H](Cc1ccccc1)C(N)=O ([Mpa](X1)TRVLKRWKLF-NH2) | 216.3 | 88.5 | 94.3 | 92.4 | 97.3 | – | – | – |
| CC(C)C[C@H](NC(=O)[C@H](CCCCN)NC(=O)CCSSCCCOC(=O)Oc1ccc2nc(C3=N[C@@H](C(=O)O)CS3)sc2c1)C(=O)N[C@@H](Cc1ccccc1)C(=O)N[C@@H](CC(N)=O)C(=O)N[C@@H](CCCCN)C(=O)N[C@@H](CCC(N)=O)C(=O)N[C@@H](CCC(=O)O)C(=O)N[C@@H](Cc1c[nH]c2ccccc12)C(=O)N[C@H](C(=O)N[C@@H](CC(N)=O)C(N)=O)[C@@H](C)O ([Mpa](X1)KLFNKQEWTN-NH2) | 9.7 | 99.4 | 93 | 98.8 | 97.6 | – | – | – |
